In patent publication US20110311601A1, “ANTIMICROBIAL MEDICAL DEVICES” (priority 2010, published 2011):
Where no end group is shown, it is not given here.

Tests used:
Experiment in all cases: micro-dilution assay (MBC, LD90)
Format in all cases: cell-based
[1] = system: Enterococcus faecalis ATCC 51299 VRE
Outline: (§1)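 MBC (99.9% killing) and LD90 (90% killing) come from CFU counts normalised to an untreated growth control. Organisms grown in BHI, washed into 10 mM sodium phosphate buffer pH 7.2 at 10^4 cells/ml, then incubated 2 h with hβD2 (final 0.0125–100 mg/l) before plating.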

[2] = system: Corynebacterium pseudodiphtheriae RV A1/95
Outline: as §1

[3] = system: Proteus vulgaris BK 8730/99 (wild-type)
Outline: as §1

[4] = system: Acinetobacter junii ATCC 17908
Outline: as §1

[5] = system: Proteus mirabilis UR 1792/03 (wild-type)
Outline: as §1

E. coli ATCC 25922 = system: E. coli ATCC 25922
Outline: as §1

[6] = system: Pseudomonas fluorescens NCTC 10038
Outline: as §1

[7] = system: Burkholderia cepacia ATCC 25416
Outline: as §1

[8] = system: Eikenella corrodens (wild-type)
Outline: as §1

[9] = system: Stenotrophomonas maltophilia ATCC 10257
Outline: as §1

[10] = system: Pseudomonas aeruginosa CF 479 mr (wild-type)
Outline: as §1

[11] = system: Corynebacterium amycolatum RV A2/97
Outline: as §1

[12] = system: Providencia rettgeri NCTC 7475
Outline: as §1

[13] = system: Candida tropicalis ATCC 750
Outline: as §1

human β-defensin-2 (GIGDPVTCLKSGAICHPVFCPRRYKQIGTCGLPGTKCCKKP; ends and bridges not checked; cysteine pairing not given here) [hβD2, recombinant hβD2]
LD 90 = μg/ml 90% killing [1]: 50 µg/mL
MBC = μg/ml 99.9% killing [1]: 100 µg/mL
LD 90 = μg/ml 90% killing [2]: 12.5 µg/mL
MBC = μg/ml 99.9% killing [2]: 12.5 µg/mL
LD 90 = μg/ml 90% killing [3]: 100 µg/mL
MBC = μg/ml 99.9% killing [3]: >100 µg/mL
LD 90 = μg/ml 90% killing [4]: 3.125 µg/mL
MBC = μg/ml 99.9% killing [4]: 12.5 µg/mL
LD 90 = μg/ml 90% killing [5]: 3.125 µg/mL
MBC = μg/ml 99.9% killing [5]: 12.5 µg/mL
LD 90 = μg/ml 90% killing (E. coli ATCC 25922): 6.25 µg/mL
MBC = μg/ml 99.9% killing (E. coli ATCC 25922): 12.5 µg/mL
LD 90 = μg/ml 90% killing [6]: 6.25 µg/mL
MBC = μg/ml 99.9% killing [6]: 25 µg/mL
LD 90 = μg/ml 90% killing [7]: 100 µg/mL
MBC = μg/ml 99.9% killing [7]: >100 µg/mL
LD 90 = μg/ml 90% killing [8]: 50 µg/mL
MBC = μg/ml 99.9% killing [8]: 50 µg/mL
LD 90 = μg/ml 90% killing [9]: 6.25 µg/mL
MBC = μg/ml 99.9% killing [9]: 25 µg/mL
LD 90 = μg/ml 90% killing [10]: 12.5 µg/mL
MBC = μg/ml 99.9% killing [10]: 25 µg/mL
LD 90 = μg/ml 90% killing [11]: 6.25 µg/mL
MBC = μg/ml 99.9% killing [11]: 25 µg/mL
LD 90 = μg/ml 90% killing [12]: 100 µg/mL
MBC = μg/ml 99.9% killing [12]: >100 µg/mL
LD 90 = μg/ml 90% killing [13]: 1.56 µg/mL
MBC = μg/ml 99.9% killing [13]: 25 µg/mL
